Source: patent US20030068282A1, “Composition” (Unilever Home & Personal Care USA, Division of Conopco, Inc., priority 2001, published 2003)

Assay: salivary sediment model: amount of n-octyl paraben delivered from toothpaste to salivary sediment
Assay type: in vitro ADME
Settings: for amount of paraben delivered, Rep 1 / amount of paraben delivered, Rep 2 / amount of paraben delivered, Mean: toothpaste with 1.1% n-octyl paraben; for amount of paraben delivered, Rep 1 / amount of paraben delivered, Rep 2: ex-vivo samples; for amount of paraben delivered, Mean: mean of two repetitions
Method: Standard toothpastes comprising SLS and n-octyl paraben were tested in a salivary sediment model similar to that described by R. L. Wijeijweera and I. Kleinberg in Archs. Oral Biol., Vol. 34, No. 1, 1989, pages 43-53, using ex-vivo samples and measuring the amount of n-octyl paraben delivered to the salivary sediment.
Two repetitions were carried out for each SLS level in a paste comprising 1.1% n-octyl paraben. The values represnet the amount (ppm per ml sediment suspension) of paraben delivered.

amount of paraben delivered, Rep 1 (1.4% SLS in base): 60.080 ppm per ml sediment suspension
amount of paraben delivered, Rep 2 (1.4% SLS in base): 61.657 ppm per ml sediment suspension
amount of paraben delivered, Mean (1.4% SLS in base): 60.869 ppm per ml sediment suspension
amount of paraben delivered, Rep 1 (1.6% SLS in base): 59.534 ppm per ml sediment suspension
amount of paraben delivered, Rep 2 (1.6% SLS in base): 63.775 ppm per ml sediment suspension
amount of paraben delivered, Mean (1.6% SLS in base): 61.654 ppm per ml sediment suspension
amount of paraben delivered, Rep 1 (1.8% SLS in base): 48.790 ppm per ml sediment suspension
amount of paraben delivered, Rep 2 (1.8% SLS in base): 48.352 ppm per ml sediment suspension
amount of paraben delivered, Mean (1.8% SLS in base): 48.571 ppm per ml sediment suspension
Compound: CCCCCCCCOC(=O)c1ccc(O)cc1 [n-octyl paraben]
level of paraben delivered, comparison between SLS levels (SLS levels 1.4 and 1.6% compared with 1.8%): greater at SLS levels ranging at 1.4 and 1.6% than for 1.8%
